Consider 64 molecules from the Bradley open melting point set (2014).

By melting point is commonly meant the temperature, or range, at which the solid turns liquid.

Where “and” joins values, the source holds several entries; their conditions need not be identical. Equal entries are not always repeated.

With `Cc1cc(C(=O)O)no1` [5-methylisoxazole-3-carboxylic acid], the melting point is 172 °C.

In turn, `O=C(O)c1ccccc1[N+](=O)[O-]` [2-Nitrobenzoic acid] gave a melting point of 147 °C.

For `[O-][n+]1ccccc1S` [Pyridine-2-thiol 1-oxide], the melting point is 70.5 °C.

Take `O=[N+]([O-])c1ccc(CBr)cc1` [4-nitrobenzyl bromide]: the melting point turned out to be 99 °C.

In the case of `Cc1ncc([N+](=O)[O-])n1CCO` [2-(2-Methyl-5-nitro-1H-imidazol-1-yl)ethanol], the melting point stood at 160 °C.

The molecule `O=[N+]([O-])c1ccc(Nc2ccccc2)c([N+](=O)[O-])c1` [2,4-Dinitro-N-phenylaniline] gave a melting point of 160 °C.

The molecule `N#CCc1ccccc1[N+](=O)[O-]` [2-nitrophenylacetonitrile] showed a melting point of 83 °C.

For `O=C(c1ccccc1)C(Cl)Cl` [2,2-dichloroacetophenone], the melting point came to 21 °C.

In turn, `CCCSCCC` [di-n-propyl sulfide] registered a melting point of -102 °C.

For `CSC1N=NC(N)=C1C#N` (centres undefined) [1H-pyrazole-4-carbonitrile, 3-amino-5-(methylthio)-], the melting point was 190 °C.

`CCC1(C2=CCCCCC2)C(=O)NC(=O)NC1=O` [heptabarbital] displayed a melting point of 175 °C.

Molecule `Nc1ccc(Br)cc1` [p-bromoaniline] returned a melting point of 63 °C.

On to `O=Cc1cccnc1` [pyridine-3-carboxaldehyde], for which the melting point was 8 °C.

`CCCNC(=O)NS(=O)(=O)c1ccc(Cl)cc1` [chlorpropamide]: the melting point came to 128 °C.

Molecule `CN(C)[C@@H]1C(O)=C(C(N)=O)C(=O)[C@@]2(O)C(O)=C3C(=O)c4c(O)cccc4[C@@](C)(O)[C@H]3[C@H](O)[C@@H]12` [Oxytetracycline] showed a melting point of 183 °C.

In the case of `CCCOC(=O)c1ccc(O)cc1` [propyl p-hydroxybenzoate], the melting point was found to be 96 °C.

For `CN1C(=O)C(=NNc2c(Br)cc(Br)cc2Br)C(=O)N(C)C1=O`, the melting point is 166 °C.

`N#Cc1cc([N+](=O)[O-])ccc1F` [2-fluoro-5-nitrobenzonitrile] yielded a melting point of 71 °C.

Regarding `N#Cc1cccc2c(N)cccc12` [5-aminonaphthalene-1-carbonitrile], the melting point is 137 °C.

On to `C#CCCCC` [1-hexyne], for which the melting point was -132 °C.

Turning to `C[C@]12CC[C@H](O)[C@@H](O)[C@H]1CC[C@@H]1[C@@H]2CC[C@]2(C)C(=O)CC[C@@H]12` [(3beta,4alpha,5beta)-3,4-Dihydroxyandrostan-17-one], the melting point was found to be 221 °C.

On to `Oc1ccccc1I` [2-iodophenol], for which the melting point is 40 °C.

`Nc1ccc(I)cc1` [4-Iodoaniline] gave a melting point of 61 °C.

The molecule `CC(C)(C)CO` [neopentyl alcohol] returned a melting point of 54 °C.

`COC(=O)C(O)c1ccccc1[N+](=O)[O-]` (centres undefined) [methyl hydroxy(2-nitrophenyl)acetate] registered a melting point of 62 °C.

Take `Cc1ccccc1C1C=C(c2ccccc2)N=N1` (centres undefined) [5-(2-methylphenyl)-3-phenyl-1H-pyrazole]: the melting point was found to be 108 °C.

As to `CCOC(=O)CC#N` [ethyl_cyanoacetate], the melting point was -22 °C.

As for `OB(O)c1ccnc(F)c1Cl` [3-chloro-2-fluoropyridine-4-boronic acid], the melting point was determined as 128 °C.

In turn, `O=[N+]([O-])c1ccc(C(F)(F)F)cc1` [4-nitrobenzotrifluoride] displayed a melting point of 40 °C.

With `O=[N+]([O-])c1ccc(N=Nc2ccc(O)cc2O)cc1` [4-[(4-Nitrophenyl)diazenyl]benzene-1,3-diol], the melting point was found to be 200 °C.

For the molecule `O=Cc1c(F)c(F)c(F)c(F)c1F` [pentafluorobenzaldehyde], the melting point worked out at 26 °C.

`CC(C)(C)N` [2-Methylpropan-2-amine] gave a melting point of -67 °C.

`CCSc1nnc(N)s1` [2-amino-5-ethylthio-1,3,4-thiadiazole] had a melting point of 132 °C.

`CCCCCCCC/C=C/CCCCCCCC(=O)OC` [methyl elaidate] came in with a melting point of 10 °C.

As to `CCO` [Ethanol], the melting point is -114 °C.

Consider `Clc1ccccn1` [2-chloropyridine], for which the melting point was -46 °C.

With `CC1=C(C)C(=O)C(C(CCCCCC(=O)O)c2ccccc2)=C(C)C1=O` (centres undefined) [seratrodast], the melting point was determined as 128 °C.

`COc1ccc(Cl)cc1C(=O)NCCc1ccc(S(=O)(=O)NC(=O)NC2CCCCC2)cc1` [glybenzcyclamide] yielded a melting point of 173 °C.

`C1=CC2=NC3=C(CCCC3)C2=CC1` [1,2,3,4-TETRAHYDROCARBAZOLE] showed a melting point of 118 °C.

For `N#Cc1ccc(-c2ccc(C#N)cc2)cc1` [p,p'-dicyanobiphenyl], the melting point is 237 °C.

As for `CC(=O)C1=CCC2(C)C(CCC3C4CCC(=O)C4(C)CCC32)C1` (centres undefined) [3-acetylandrost-2-en-17-one], the melting point is 153 °C.

Regarding `O=C(O)c1ccc(OCc2ccccc2)cc1F` [4-benzyloxy-2-fluorobenzoic acid], the melting point is 167 °C.

On to `Cc1cccc(OCC(O)CNC(C)(C)C)c1C` (centres undefined) [xibenolol], for which the melting point came to 57 °C.

As for `O=Cc1ccc(Cl)cc1` [4-Chlorobenzaldehyde], the melting point worked out at 46 °C.

Take `Cc1ccccc1O` [o-cresol]: the melting point was 31 °C and 32 °C.

Molecule `CCCCCC(=O)O` [hexanoic_acid] had a melting point of -3 °C.

On to `CCOC(=O)CC(C)C` [ethyl isovalerate], for which the melting point is -99 °C.

Consider `CC(C)(C)Br` [2-bromo-2-methylpropane], for which the melting point was -16 °C.

As to `CCCCCCCCCCCCCl` [1-chlorododecane], the melting point was -9 °C.

Molecule `Oc1ccccc1Cl` [2-chlorophenol] yielded a melting point of 8 °C.

On to `CCOC(=O)c1sc2sc(C#N)c(N)c2c1N`, for which the melting point was determined as 262 °C.

`O=C(Oc1ccccc1)c1ccccc1O` [phenyl salicylate] displayed a melting point of 43 °C.

`CCCCCCCCCCCCCCCCC` [N-heptadecane] registered a melting point of 22 °C.

Turning to `CC1(C)c2ccccc2N(Cc2ccccc2)C12C=Cc1cc([N+](=O)[O-])ccc1O2` (centres undefined), the melting point turned out to be 159 °C.

On to `CCCCCCOC(C)=O` [N-hexyl acetate], for which the melting point is -80 °C.

The molecule `CC(C)(C)c1ccc(O)c(O)c1` [4-tert-butylcatechol] showed a melting point of 55 °C.

Regarding `O=[N+]([O-])c1cccc(Cl)c1Cl` [1,2-dichloro-3-nitrobenzene], the melting point was 62 °C.

As for `O=C(O)C(F)(F)C(F)(F)C(F)(F)C(F)(F)C(F)(F)C(F)(F)C(F)(F)F` [Pentadecafluorooctanoic acid], the melting point worked out at 55.5 °C.

In turn, `CSC(SC)=C(C#N)C(N)=O` [2-Cyano-3,3-bis(methylsulfanyl)acrylamide] returned a melting point of 102 °C.

For `O=C(O)c1ccccc1[N+](=O)[O-]` [o-nitrobenzoic_acid], the melting point amounted to 148 °C.

`O=C(O)CCl` [Chloroacetic acid] registered a melting point of 63 °C.

`c1ccncc1` [pyridine]: the melting point was -42 °C.

`N=C(N)NCCC[C@H](N)C(=O)O` [L-Arginine] registered a melting point of 221 °C.

`OB(O)c1cccc(CBr)c1` [3-(bromomethyl)benzeneboronic acid] showed a melting point of 215 °C.
